Experimental data: US7763728B2, “Tetrahydropyridothiophenes” (4SC AG, priority 2005, dated 2010)

Legend:
[1] = test system: RKO colon adenocarcinoma cells (RKOp27) arrested by the expression of ectopic p27Kip1; assay: Alamar Blue cell viability assay on RKOp27 cells arrested by p27Kip1 expression induced by Ponasterone A; assay type: cell-based; settings: Homo sapiens, 72 hours incubation, 10 μM Ponasterone A, read-out: IC50 RKO p27 induced (arrested)
Summary of the method: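 RKOp27 cells, 15000/well, held in DMEM with 10% FCS and with or without 10 μM Ponasterone A to induce p27Kip1 arrest. Compound dilutions added 24 h after seeding, then 72 h at 37 °C in quadruplicate. Alamar Blue fluorescence (544/590 nm) gave % viability relative to untreated cells.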

[2] = test system: RKO (RKOp27) human colon adenocarcinoma cells; assay: Alamar Blue cell viability assay, anti-proliferative/cytotoxic activity on proliferating (uninduced) RKOp27 cells; assay type: cell-based; settings: 72 hours incubation, absence of the inducer Ponasterone A, read-out: IC50 RKO p27 uninduced (proliferating)
Summary of the method: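 RKOp27 subclones seeded at 5000 cells/well, compounds added after 24 h in DMEM/10% FCS, quadruplicates, 72 h at 37 °C, 5% CO2. Alamar Blue fluorescence (ex 544/em 590 nm) normalised to untreated cells (1% DMSO medium) as 100%; IC50 from concentration-effect curves.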

Row | SMILES | IC50 [1] [nM] | IC50 [2] [nM]
1 | COc1ccccc1CCC(=O)Nc1sc2c(c1C#N)CCN(C(=O)CCc1ccncc1)C2 [Example 122, N-[3-Cyano-6-(3-pyridin-4-yl-propanoyl)-4,5,6,7-tetrahydro-thieno[2,3-c]pyridin-2-yl]-3-(2-methoxy-phenyl)-propionamide] | > 100000 | ≤ 300
2 | COC(=O)CCC(=O)N1CCc2c(sc(NC(=O)CCc3ccccc3OC)c2C#N)C1 [Example 4, 4-{3-Cyano-2-[3-(2-methoxy-phenyl)-propanoylamino]-4,7-dihydro-5H-thieno[2,3-c]pyridin-6-yl}-4-oxo-butyric acid methyl ester] | > 100000 | 300 to 2000
3 | CCCC(=O)N1CCc2c(sc(NC(=O)CCc3cc(C)ccc3OC)c2C#N)C1 [Example 35, N-(6-Butyryl-3-cyano-4,5,6,7-tetrahydro-thieno[2,3-c]pyridin-2-yl)-3-(2-methoxy-5-methyl-phenyl)-propionamide] | > 100000 | ≤ 300
4 | COc1cccc(CCC(=O)Nc2sc3c(c2C#N)CCN(C(=O)CCCO)C3)c1 [Example 21, N-[3-Cyano-6-(4-hydroxy-butanoyl)-4,5,6,7-tetrahydro-thieno[2,3-c]pyridin-2-yl]-3-(3-methoxy-phenyl)-propionamide] | > 100000 | 300 to 2000
5 | COc1ccc(C)cc1CCC(=O)Nc1sc2c(c1C#N)CCN(C(=O)CCc1ccccn1)C2 [Example 96, N-[3-Cyano-6-(3-pyridin-2-yl-propanoyl)-4,5,6,7-tetrahydro-thieno[2,3-c]pyridin-2-yl]-3-(2-methoxy-5-methyl-phenyl)-propionamide] | > 100000 | 300 to 2000
6 | COc1cccc(C(C)CC(=O)Nc2sc3c(c2C#N)CCN(C(=O)CCc2ccncc2)C3)c1 (racemic) [Example 79, (RS)—N-[3-Cyano-6-(3-pyridin-4-yl-propanoyl)-4,5,6,7-tetrahydro-thieno[2,3-c]pyridin-2-yl]-3-(3-methoxy-phenyl)-butyramide] | > 100000 | 300 to 2000
7 | COc1ccccc1C(C)CC(=O)Nc1sc2c(c1C#N)CCN(C(=O)Cn1ccnc1C)C2 (racemic) [Example 127, (RS)—N-{3-Cyano-6-[2-(2-methyl-imidazol-1-yl)-ethanoyl]-4,5,6,7-tetrahydro-thieno[2,3-c]pyridin-2-yl}-3-(2-methoxy-phenyl)-butyramide] | ≥ 40000 | ≤ 300
8 | CCOc1ccccc1CCC(=O)Nc1sc2c(c1C#N)CCN(C(=O)COC(C)=O)C2 [Example 10, Acetic acid 2-{3-cyano-2-[3-(2-ethoxy-phenyl)-propanoylamino]-4,7-dihydro-5H-thieno[2,3-c]pyridin-6-yl}-2-oxo-ethyl ester] | > 100000 | ≤ 300
9 | COc1cccc(CCC(=O)Nc2sc3c(c2C#N)CCN(C(=O)CCc2ccccn2)C3)c1 [Example 16, N-[3-Cyano-6-(3-pyridin-2-yl-propanoyl)-4,5,6,7-tetrahydro-thieno[2,3-c]pyridin-2-yl]-3-(3-methoxy-phenyl)-propionamide] | > 100000 | 300 to 2000
10 | CCCC(=O)N1CCc2c(sc(NC(=O)CC(C)c3ccccc3OC)c2C#N)C1 (racemic) [Example 89, (RS)—N-(6-Butyryl-3-cyano-4,5,6,7-tetrahydro-thieno[2,3-c]pyridin-2-yl)-3-(2-methoxy-phenyl)-butyramide] | > 100000 | ≤ 300
11 | COc1ccc(C)cc1CCC(=O)Nc1sc2c(c1C#N)CCN(C(=O)Cc1cccnc1)C2 [Example 37, N-[3-Cyano-6-(2-pyridin-3-yl-ethanoyl)-4,5,6,7-tetrahydro-thieno[2,3-c]pyridin-2-yl]-3-(2-methoxy-5-methyl-phenyl)-propionamide] | > 100000 | ≤ 300

Continued, in another order:

Row | IC50 [1] [nM] | SMILES | IC50 [2] [nM]
12 | ≥ 10000 | CCOc1ccccc1C(C)CC(=O)Nc1sc2c(c1C#N)CCN(C(=O)Cc1ccccn1)C2 (racemic) [Example 63, (RS)—N-[3-Cyano-6-(2-pyridin-2-yl-ethanoyl)-4,5,6,7-tetrahydro-thieno[2,3-c]pyridin-2-yl]-3-(2-ethoxy-phenyl)-butyramide] | ≤ 300
13 | ≥ 40000 | CCOc1ccccc1C(C)CC(=O)Nc1sc2c(c1C#N)CCN(C(=O)Cn1ccnc1)C2 (racemic) [Example 83, (RS)—N-[3-Cyano-6-(2-imidazol-1-yl-ethanoyl)-4,5,6,7-tetrahydro-thieno[2,3-c]pyridin-2-yl]-3-(2-ethoxy-phenyl)-butyramide] | ≤ 300
14 | ≥ 40000 | CCOc1ccccc1C(C)CC(=O)Nc1sc2c(c1C#N)CCN(C(=O)CCn1ccnc1)C2 (racemic) [Example 100, (RS)—N-[3-Cyano-6-(3-imidazol-1-yl-propanoyl)-4,5,6,7-tetrahydro-thieno[2,3-c]pyridin-2-yl]-3-(2-ethoxy-phenyl)-butyramide] | 300 to 2000
15 | ≥ 10000 | CCOc1ccccc1C(C)CC(=O)Nc1sc2c(c1C#N)CCN(C(=O)CCc1nccn1C)C2 (racemic) [Example 114, (RS)—N-{3-Cyano-6-[3-(1-methyl-1H-imidazol-2-yl)-propanoyl]-4,5,6,7-tetrahydro-thieno[2,3-c]pyridin-2-yl}-3-(2-ethoxy-phenyl)-butyramide] | 300 to 2000
16 | ≥ 40000 | COc1ccccc1CCC(=O)Nc1sc2c(c1C#N)CCN(C(=O)Cn1ccnc1)C2 [Example 84, N-[3-Cyano-6-(2-imidazol-1-yl-ethanoyl)-4,5,6,7-tetrahydro-thieno[2,3-c]pyridin-2-yl]-3-(2-methoxy-phenyl)-propionamide] | ≤ 300
17 | ≥ 10000 | COc1ccc(C)cc1CCC(=O)Nc1sc2c(c1C#N)CCN(C(=O)CCn1ccnc1C)C2 [Example 110, N-{3-Cyano-6-[3-(2-methyl-imidazol-1-yl)-propanoyl]-4,5,6,7-tetrahydro-thieno[2,3-c]pyridin-2-yl}-3-(2-methoxy-5-methyl-phenyl)-propionamide] | 300 to 2000
18 | ≥ 10000 | COc1ccccc1C(C)CC(=O)Nc1sc2c(c1C#N)CCN(C(=O)CCc1nccn1C)C2 (racemic) [Example 113, (RS)—N-{3-Cyano-6-[3-(1-methyl-1H-imidazol-2-yl)-propanoyl]-4,5,6,7-tetrahydro-thieno[2,3-c]pyridin-2-yl}-3-(2-methoxy-phenyl)-butyramide] | 300 to 2000
19 | ≥ 10000 | CCOc1ccccc1C(C)CC(=O)Nc1sc2c(c1C#N)CCN(C(=O)Cn1ccnc1C)C2 (racemic) [Example 128, (RS)—N-{3-Cyano-6-[2-(2-methyl-imidazol-1-yl)-ethanoyl]-4,5,6,7-tetrahydro-thieno[2,3-c]pyridin-2-yl}-3-(2-ethoxy-phenyl)-butyramide] | ≤ 300
20 | ≥ 10000 | CCOc1ccccc1C(C)CC(=O)Nc1sc2c(c1C#N)CCN(C(=O)Cn1cc(C)nc1C)C2 (racemic) [Example 145, (RS)—N-{3-Cyano-6-[2-(2,4-dimethyl-imidazol-1-yl)-ethanoyl]-4,5,6,7-tetrahydro-thieno[2,3-c]pyridin-2-yl}-3-(2-ethoxy-phenyl)-butyramide] | ≤ 300
21 | ≥ 10000 | COc1ccc(C)cc1CCC(=O)Nc1sc2c(c1C#N)CCN(C(=O)CCc1nccn1C)C2 [Example 118, N-{3-Cyano-6-[3-(1-methyl-1H-imidazol-2-yl)-propanoyl]-4,5,6,7-tetrahydro-thieno[2,3-c]pyridin-2-yl}-3-(2-methoxy-5-methyl-phenyl)-propionamide] | 300 to 2000
